No end group written: not given here.
B1: ceruloplasmin: protein tested for interaction in the PACAP assay (protein, UniProt P00450 20-1065, looked up)
Ceruloplasmin: KEKHYYIGIIETTWDYASDHGEKKLISVDTEHSNIYLQNGPDRIGRLYKKALYLQYTDETFRTTIEKPVWLGFLGPIIKAETGDKVYVHLKNLASRPYTFHSHGITYYKEHEGAIYPDNTTDFQRADDKVYPGEQYTYMLLATEEQSPGEGDGNCVTRIYHSHIDAPKDIASGLIGPLIICKKDSLDKEKEKHIDREFVVMFSVVDENFSWYLEDNIKTYCSEPEKVDKDNEDFQESNRMYSVNGYTFGSLPGLSMCAEDRVKWYLFGMGNEVDVHAAFFHGQALTNKNYRIDTINLFPATLFDAYMVAQNPGEWMLSCQNLNHLKAGLQAFFQVQECNKSSSKDNIRGKHVRHYYIAAEEIIWNYAPSGIDIFTKENLTAPGSDSAVFFEQGTTRIGGSYKKLVYREYTDASFTNRKERGPEEEHLGILGPVIWAEVGDTIRVTFHNKGAYPLSIEPIGVRFNKNNEGTYYSPNYNPQSRSVPPSASHVAPTETFTYEWTVPKEVGPTNADPVCLAKMYYSAVEPTKDIFTGLIGPMKICKKGSLHANGRQKDVDKEFYLFPTVFDENESLLLEDNIRMFTTAPDQVDKEDEDFQESNKMHSMNGFMYGNQPGLTMCKGDSVVWYLFSAGNEADVHGIYFSGNTYLWRGERRDTANLFPQTSLTLHMWPDTEGTFNVECLTTDHYTGGMKQKYTVNQCRRQSEDSTFYLGERTYYIAAVEVEWDYSPQREWEKELHHLQEQNVSNAFLDKGEFYIGSKYKKVVYRQYTDSTFRVPVERKAEEEHLGILGPQLHADVGDKVKIIFKNMATRPYSIHAHGVQTESSTVTPTLPGETLTYVWKIPERSGAGTEDSACIPWAYYSTVDQVKDLYSGLIGPLIVCRRPYLKVFNPRRKLEFALLFLVFDENESWYLDDNIKTYSDHPEKVNKDDEEFIESNKMHAINGRMFGNLQGLTMHVGDEVNWYLMGMGNEIDLHTVHFHGHSFQYKHRGVYSSDVFDIFPGTYQTLEMFPRTPGIWLLHCHVTDHIHAGMETTYTVLQNEDTKSG

System: Anti-PACAP antibodies (capture Lu AG20136, detection Lu AG20141)
Test: Reactivity in PACAP MSD S-PLEX sandwich immunoassay
Assay type: binding
Conditions: sandwich ECL immunoassay

Molecule | Reactivity in PACAP MSD S-PLEX assay
vasoactive intestinal peptide (HSDAVFTDNYTRLRKQMAVKKYLNSILN; ends and bridges not checked; UniProt P01282 125-152, looked up) [VIP] | No reactivity
B1 | no interaction
